Like-named read-outs stand apart in the source and are kept apart here.
Assays:
[1] = Solubility remark on the test substance; format: physicochemical; conditions: compared with the other tetracycline test substances, 20 mg/ml solution or suspension
Abca4 (−/−) mice [2] = assay: A2E concentration in eyes of Abca4 (−/−) mice after intravitreal injection, HPLCMSMS; format: in vivo; conditions: for response vs control in vivo at 20000 µg/mL: Mus musculus, read-out: % of A2E relative to age matched untreated
Description: […] […] The left eye was not treated and maintained as a control. Untreated eyes of age-matched mice lacking the Abca4 transporter were an additional control.
The concentration in each treated eye was then expressed as a percentage of the average concentration in all untreated eyes in the mice of the same age.
The left eye was not treated and maintained as a control. Untreated eyes of age-matched mice lacking the Abca4 transporter were an additional control.
The left eye was not treated and maintained as a control. Untreated eyes of age-matched mice lacking the Abca4 transporter were an additional control. […] Tryptophan is capable of absorbing and re-radiating light energy, as is riboflavin.
Water solutions were diluted 1:3 with acetonitrile and then sealed in vials for injection. 6 μL of the water acetonitrile solutions were injected onto a 2×50 mm Phenyl derived HPLC column (3 μm) and eluted with a gradient from 20% acetonitrile to 100% acetonitrile over 4 minutes at a flow rate of 500 μL/minute.

RPE cells = conditions: healthy monkeys, human RPE cells from aged donors, mouse model for Stargardt's Disease; EP 2080513 A1 and literature; cited from earlier work
melanin A2E particles = assay: Assay for binding to A2E melanin particles; set-up: species or system S. officinalis; conditions: FIG. 3A; 37° C., 4 h
Protocol: To study the binding of A2E to melanin, a suspension of 2 mg/ml natural melanin (S. officinalis) is prepared in PBS, pH 7.4. The melanin suspension is brought to 37° C. and sonicated for 15 min to form a uniform suspension. The melanin suspension (0.75 ml) is measured in aliquots into glass test tubes (12×75 mm) under continuous shaking to avoid sedimentation. The solution of A2E (0.75 ml) is added to the above-mentioned melanin aliquots, and the tubes will be incubated in a shaker incubator at 37° C. and 300 rpm for 4 h.
Controls are prepared by incubating A2E in the absence of melanin in incubation medium and by incubating melanin without A2E. Compounds are added to melanin suspension from stock solutions. After incubation, the suspensions are centrifuged at 13,000 rpm for 15 min at room temperature to remove the melanin granules. The supernatant is collected, diluted with acetonitrile and analyzed by an LC-MS/MS method to determine the concentration of […] in the supernatant. The kinetic parameters of binding study, i.e., maximal binding capacity (rmax) and the binding affinity (k) are determined for A2E according to the previously reported method (Cheruvu et al., 2008).
A high percentage of soraprazan and demethoxysoraprazan—about 46% and about 53%, respectively—are found bound to the melanin A2E particles.

[3] = In vitro (cell-free) degradation of A2E in aqueous solution, LCMS; format: biochemical; conditions: for A2E / A2E (% control): A2E 20 μM + verteporfin 25 μM; for A2E (% control): control = A2E non-illuminated
Protocol: The degradation of N-retinylidene-N-retinylethanolamine (A2E)—component of lipofuscin—in an aqueous solution water was measured in the presence of potential degradation mediators and light illumination.
In a cell-free assay, A2E was dissolved in deionized H2O in a concentration of 20 μM and the solution was divided into two parts. To one part of the A2E solution verteporfin was added in an amount of 25 μM. […]
The amounts of A2E and its epoxides (A2E+O, A2E+2O) remaining were quantified by combined liquid chromatography and mass spectroscopy (LCMS) using the transitions indicated in Table 1.

[4] = test system: human retinal pigment epithelium (RPE) cells; assay: Degradation of lipofuscin in human RPE cells (micrographs after one week); format: cell-based; conditions: test compound alone (SAD 50 μg/ml; cardioxane 10, 50 or 100 μM), one week incubation
Protocol: To explore the role of the reactive chemical species the human retinal pigment epithelium (RPE) cells were treated with the super oxide anion donor (SAD) soraprazan ((7R,8R,9R)-2,3-Dimethyl-8-hydroxy-7-ethoxy-9-phenyl-7,8,9,10-tetrahydro-imidazo-[1,2-h][1,7]-naphthyridin)—a member of the THPE family—either alone or in combination with a known radical oxygen scavenger, cardioxane.
After growing the hRPE-cells to confluence, the test compounds were added to seven cell cultures and the cells were incubated at 37° C. and 5% CO2. The SAD was added to the cell cultures in a concentration of 50 μg/ml either alone or in combination with cardioxane in a concentration of 10 μM, 50 μM or 100 μM. Additionally, three cell cultures were incubated only with cardioxane in a concentration of 10 μM, 50 μM or 100 μM. As control, one cell culture was grown without test compounds.
After one week of incubation micrographs of the differently incubated RPE cells were taken as shown in FIG. 2A to H. In the original images, lipofuscin in cells is visible as a yellow-gold-orange fluorescent structure, before a blue background. In the grey scale reproduction in FIG. 2 the yellow-gold-orange structure appear light grey (yellow) or dark grey (gold-orange) before a grey background. Areas of degradation of lipofuscin in the hRPE cells appears as bright blue to whitish structures which appear white in the in the grey scale reproduction and are circled in FIG. 2A.
The bright blue structures are only observed in the experimental set up with SAD alone (FIG. 2A).

[5] = test system: ARPE-19, a human RPE cell line that lacks melanin and lipofuscin; assay: Cellular verteporfin uptake in ARPE-19 cells; format: in vitro ADME; conditions: for Verteporfin in the cells after incubation: medium with 278 nM Verteporfin
Protocol: (§1) For testing factors influencing the cellular uptake of verteporfin to two cell types used:
ARPE-19, a human RPE cell line that lacks melanin and lipofuscin
(§2) The cells were treated with 200 μl of a culture medium that contained 278 nM Verteporfin for the indicated time, the culture medium was discarded, the cells trypsinized, resuspended in 500 μl medium and counted.

[6] = test system: patient with putative dry AMD; assay: Clinical use of the photosensitizer to treat AMD, blue light laser retinal fluorescence; format: in vivo; conditions: intravenous 6 mg/m^2 or ca 4 μg intravitreal; days 7, 14 and 28 versus pre-treatment
Protocol: A patient with putative dry AMD is examined and baseline retinal fluorescence is determined using the blue laser imaging device (Heidelberg engineering). The patient is subject to an intravenous dose of 6 mg/m^2 verteporf in by means of infusion of 30 ml over 10 minutes. An alternative to intravenous application is the direct intravitreal application of verteporf in. In this case, ca 4 μg of verteporfin is administered to an affected single eye. Fluorescence after 1, 2 and 4 weeks is compared with fluorescence at baseline. The eyes are treated alternately.
In the standard verteporfin treatment, fifteen minutes after the start of the infusion, a laser light at 689 nm delivered 50 J/cm^2 by application of an intensity of 600 mW/cm^2 over 83 seconds using a spot size with a diameter 1000 μm. […] After administration of verteporfin to a patient an exposure of the eyes of the patient to mild indoor light of about 500 lux. Alternatively, low filtering sunglasses can be used as a means to maintain an exposure of the eyes of the patient to 500 lux when outdoors. The exposure should be maintained for a period of at least 6 h per day.
Blue light laser retinal fluorescence is measured at days 7, 14 and 28 after treatment and compared with pre-treatment values. Specific reductions of retinal fluorescence>1-20% are on post-treatment examination. […]

Abca4 (−/−) mice [7] = assay: Verteporfin injection into the vitreous of Abca4 (−/−) mice, micrographs of semi-thin sections; format: in vivo; conditions: 2 μl intravitreal, 12 month old mice, four weeks after injection, normal daylight
Protocol: 2 μl of a Verteporfin solution were injected into the vitreous of eyes from Abca4 (−/−) mice (12 month old) which lack the Abca4 transporter in the disk membranes of photoreceptors. Four weeks after injection the eyes of the mice were enucleated, embedded into the epoxy resin Epon™ and cut into semi-thin sections. As a control eyes of age-matched untreated mice lacking the Abca4 transporter were prepared in the same way. […] The RPE cell layer is marked by arrows in the Figure. Comparing the micrographs of the semi-thin section of eyes of untreated (FIG. 5a) and treated (FIG. 5b) mice the cytoplasm of the RPE cells of untreated mice appears much denser due to the targeting of confluent lipofuscin components. […] In treated eyes predominately melanin granules remained in the cytoplasm of RPE cells.

[8] = test system: HuRPE, RPE cells isolated from human donor eyes that contain melanin and lipofuscin; assay: Cellular verteporfin uptake in HuRPE cells; format: in vitro ADME; conditions: for Verteporfin in the cells after incubation: medium with 278 nM Verteporfin
Protocol: as §1
HuRPE, RPE cells isolated from human donor eyes that contain melanin and lipofuscin
as §2

[9] = redox active small molecules and chelator, intravitreal 2 μl of 20 mg/ml, 16 hours after injection
[10] = dyes and porphyrins, intravitreal 2 μl of 2 mg/mL, one week after injection

Question: Which Solubility [1] does the source give for CN(C)[C@@H]1C(O)=C(C(N)=O)C(=O)[C@@]2(O)C(O)=C3C(=O)c4c(O)ccc(Cl)c4[C@@H](O)[C@H]3C[C@@H]12 [Demeclocycline] here?
Answer: Its Solubility is “notably less soluble”.

Question: And the response vs control in vivo at 20000 µg/mL (Abca4 (−/−) mice [2]; 168 h, tetracycline antibiotics, intravitreal 2 μl of 20 mg/ml, one week after injection)?
Answer: Its response vs control in vivo at 20000 µg/mL is 89%.

Question: What about the “Concentration A2E (μM) in the treated eye” value (“Concentration A2E (μM)” for short) (Abca4 (−/−) mice [2]; tetracycline antibiotics, intravitreal 2 μl of 20 mg/ml, one week after injection) of the same molecule?
Answer: The value was 37 µM.

Question: Which “Removal of natural lipofuscin from RPE cells” value (RPE cells) does the source give for COCCO[C@@H]1c2ccn3c(C)c(C)nc3c2N[C@H](c2ccccc2)[C@H]1O [Soraprazan, (7R,8R,9R)-2,3-Dimethyl-8-hydroxy-7-(2-methoxyethoxy)-9-phenyl-7,8,9,10-tetrahydro-imidazo[1,2-h] [1,7]naphthyridine] here?
Answer: Its value is “remove natural lipofuscin from RPE cells”.

Question: And the “Proportion of compound bound to the melanin A2E particles after incubation” value (melanin A2E particles)?
Answer: Its value is “about 46%”.

Question: What about the “Degradation of the lipofuscin component A2E in cell free systems” value ([3]; cell free, in solution under illumination by visible light) of the same molecule?
Answer: The value was “degraded”.

Question: And the “Degradation / removal of lipofuscin in hRPE cells” value [4]?
Answer: Its value is “removal of lipofuscin”.

Question: And the response vs control in vivo at 20000 µg/mL (Abca4 (−/−) mice [2]; [9])?
Answer: The response vs control in vivo at 20000 µg/mL was 61%.

Question: What about the “Concentration A2E (μM)” value (Abca4 (−/−) mice [2]; [9]) of the same molecule?
Answer: The value was 31 µM.

Question: Which “Verteporfin in the cells after incubation” value (“Verteporfin in the cells” for short) ([5]; ARPE-19, 1 h) does the source give for verteporfin here?
Answer: The value was 159 nM.

Question: What about the “Verteporfin in the cells” value ([5]; ARPE-19, 18 h) of the same molecule?
Answer: The value was 351 nM.

Question: What about the “Increase of verteporfin concentration in the cells after 18 h” value ([5]; ARPE-19, 18 h versus 1 h) of the same molecule?
Answer: Its value is “about two-fold”.

Question: And the “Specific reductions of retinal fluorescence” value [6]?
Answer: Its value is 1-20%.

Question: What about the “Proportion of compound bound to the melanin A2E particles after incubation” value (melanin A2E particles) of the same molecule?
Answer: Its value is “bind to the A2E melanin particles although to a lower percentage”.

Question: What about the “Removal of lipofuscin from the cytoplasm of RPE cells” value (Abca4 (−/−) mice [7]) of the same molecule?
Answer: The value was “substantial amounts of lipofuscin and melanolipofuscin were removed from the cytoplasm of RPE cells”.

Question: What about the “Verteporfin in the cells” value ([8]; HuRPE, 1 h) of the same molecule?
Answer: Its value is 339 nM.

Question: What about the “Verteporfin in the cells” value ([8]; HuRPE, 18 h) of the same molecule?
Answer: The value was 1206 nM.

Question: And the “Increase of verteporfin concentration in the cells after 18 h” value ([8]; HuRPE, 18 h versus 1 h)?
Answer: Its value is “about four-fold”.

Question: What about the “Concentration of verteporfin in HuRPE compared to ARPE-19” value ([8]; after 1 h of incubation) of the same molecule?
Answer: The value was “more than two-fold”.

Question: What about the “A2E” value ([3]; 689 nm, 83 s) of the same molecule?
Answer: Its value is 14.338 µM.

Question: What about the “A2E (% control)” value ([3]; 689 nm, 83 s) of the same molecule?
Answer: The value was 44 % control.

Question: What about the “A2E” value ([3]; non-illuminated, 5 min) of the same molecule?
Answer: The value was 28.864 µM.

Question: And the “A2E (% control)” value ([3]; non-illuminated, 5 min)?
Answer: Its value is 89 % control.

Question: And the “A2E” value ([3]; white light, 5 min)?
Answer: Its value is 1.295 µM.

Question: And the “A2E (% control)” value ([3]; white light, 5 min)?
Answer: Its value is 4 % control.

Question: And the “% of A2E relative to age matched untreated” value (Abca4 (−/−) mice [2]; [10])?
Answer: Its value is 90%.

Question: What about the “Concentration A2E (μM)” value (Abca4 (−/−) mice [2]; [10]) of the same molecule?
Answer: Its value is 27 µM.

Reference: patent US10495630B2, “Methods for the determination of compounds or compositions for the treatment of lipofuscin related diseases and compounds or compositions” (KATAIRO GMBH, priority 2014, dated 2019)
